Data as given in patent US11192891B2, “Diazaspiro ROCK inhibitors” (BRISTOL-MYERS SQUIBB COMPANY, priority 2017, dated 2021).

Each compound was assayed against ROCK2 (Homo sapiens, UniProt O75116) (assay: ROCK kinase inhibition assay, FITC peptide substrate, LABCHIP 3000 readout). Conditions: 5 μM ATP, 1.5 μM peptide substrate.
ROCK2, sequence (O75116 whole entry, species assumed): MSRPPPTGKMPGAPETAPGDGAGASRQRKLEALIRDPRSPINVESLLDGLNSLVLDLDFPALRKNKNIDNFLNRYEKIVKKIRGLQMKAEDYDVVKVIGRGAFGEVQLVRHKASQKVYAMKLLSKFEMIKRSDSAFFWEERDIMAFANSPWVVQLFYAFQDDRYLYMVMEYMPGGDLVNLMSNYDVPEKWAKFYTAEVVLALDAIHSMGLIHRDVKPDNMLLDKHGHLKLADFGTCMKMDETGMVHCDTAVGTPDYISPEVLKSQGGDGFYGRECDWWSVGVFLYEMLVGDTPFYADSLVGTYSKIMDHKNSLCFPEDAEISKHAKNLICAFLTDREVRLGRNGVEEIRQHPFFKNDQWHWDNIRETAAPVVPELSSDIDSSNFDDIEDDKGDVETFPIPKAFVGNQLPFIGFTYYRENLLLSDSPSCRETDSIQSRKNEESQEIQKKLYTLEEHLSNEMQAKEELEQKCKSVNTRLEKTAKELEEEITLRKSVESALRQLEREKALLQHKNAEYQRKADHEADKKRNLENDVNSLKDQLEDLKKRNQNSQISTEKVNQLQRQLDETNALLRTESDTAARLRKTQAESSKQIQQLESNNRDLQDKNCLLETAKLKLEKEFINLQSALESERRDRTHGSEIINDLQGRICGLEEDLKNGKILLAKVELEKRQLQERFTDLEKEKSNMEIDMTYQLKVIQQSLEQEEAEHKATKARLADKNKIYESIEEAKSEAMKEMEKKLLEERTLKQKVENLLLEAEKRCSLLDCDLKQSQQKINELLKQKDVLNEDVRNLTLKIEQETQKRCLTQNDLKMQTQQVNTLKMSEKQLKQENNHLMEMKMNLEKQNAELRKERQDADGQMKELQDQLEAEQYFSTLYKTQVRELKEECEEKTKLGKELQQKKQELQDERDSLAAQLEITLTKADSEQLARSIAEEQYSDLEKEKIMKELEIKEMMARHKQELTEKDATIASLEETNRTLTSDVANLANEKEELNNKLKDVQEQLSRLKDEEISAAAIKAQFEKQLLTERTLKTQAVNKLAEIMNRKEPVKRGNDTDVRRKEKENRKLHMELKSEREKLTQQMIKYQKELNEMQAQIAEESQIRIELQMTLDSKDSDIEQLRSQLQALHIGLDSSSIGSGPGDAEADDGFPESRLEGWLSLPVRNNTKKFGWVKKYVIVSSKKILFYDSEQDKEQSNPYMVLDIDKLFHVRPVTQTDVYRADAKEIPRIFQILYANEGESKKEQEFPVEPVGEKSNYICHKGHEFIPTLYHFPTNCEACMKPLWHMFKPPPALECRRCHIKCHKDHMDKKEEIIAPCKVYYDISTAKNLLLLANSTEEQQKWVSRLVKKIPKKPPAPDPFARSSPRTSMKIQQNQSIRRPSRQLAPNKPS
Format: biochemical
Experimental: Compounds were dissolved in DMSO so that the final concentration of DMSO was <2%, and the reaction was initiated with Rho kinase variants. After incubation, the reaction was terminated by the addition of EDTA and the phosphorylated and non-phosphorylated peptides separated using a LABCHIP® 3000 Reader (Caliper Life Sciences). […] Compounds were tested in dose-response format, and the inhibition of kinase activity was calculated at each concentration of compound.
In the case of `COc1cc(F)c(C(=O)N2CCC3(CC2)CCN(c2ccc(-c4cn[nH]c4)c(OC)c2)C3=O)c(F)c1` [Example 28, 8-(2,6-difluoro-4-methoxybenzoyl)-2-[3-methoxy-4-(1H-pyrazol-4-yl)phenyl]-2,8-diazaspiro[4.5]decan-1-one], the IC50 is reported as 0.005 µM. Work on `COc1cc(N2CCC3(CCN(C(=O)c4ccc(C(C)C)cc4)CC3)C2=O)ccc1-c1cn[nH]c1` [Example 92, 2-[3-methoxy-4-(1H-pyrazol-4-yl)phenyl]-8-[4-(propan-2-yl)benzoyl]-2,8-diazaspiro[4.5]decan-1-one] yielded an IC50 of 0.012 µM. Compound `COc1c(F)cccc1C(=O)N1CCC2(CC1)CCN(c1ccc(-c3cn[nH]c3)cc1)C2=O` [Example 8, 8-(3-Fluoro-2-methoxybenzoyl)-2-[4-(1H-pyrazol-4-yl)phenyl]-2,8-diazaspiro[4.5]decan-1-one] has an IC50 of 0.112 µM. With `COc1cc(N2CCC3(CCN(C(=O)c4ccc(-c5ccccc5)o4)CC3)C2=O)ccc1-c1cn[nH]c1` [Example 85, 2-[3-methoxy-4-(1H-pyrazol-4-yl)phenyl]-8-(5-phenylfuran-2-carbonyl)-2,8-diazaspiro[4.5]decan-1-one] the IC50 was 0.851 µM. `CN1CCN(c2ccc(C(=O)N3CCC4(CC3)CCN(c3ccc(-c5ccnc6[nH]ccc56)cc3)C4=O)cc2)CC1` [Example 35, 8-[4-(4-methylpiperazin-1-yl)benzoyl]-2-(4-{1H-pyrrolo[2,3-b]pyridin-4-yl}phenyl)-2,8-diazaspiro[4.5]decan-1-one] was tested, and the IC50 was 0.0003 µM. With `COc1cc(N2CCC3(CCN(C(=O)c4ccc(-c5ccc(S(C)(=O)=O)cc5)cc4)CC3)C2=O)ccc1-c1cn[nH]c1` [Example 173, 8-{4′-methanesulfonyl-[1,1′-biphenyl]-4-carbonyl}-2-[3-methoxy-4-(1H-pyrazol-4-yl)phenyl]-2,8-diazaspiro[4.5]decan-1-one] the IC50 was 0.0037 µM. In the case of `COc1cc(N2CCC3(CCN(C(=O)c4cc5ncc(Br)cn5n4)CC3)C2=O)ccc1-c1cn[nH]c1` [Example 93, 8-{6-bromopyrazolo[1,5-a]pyrimidine-2-carbonyl}-2-[3-methoxy-4-(1H-pyrazol-4-yl)phenyl]-2,8-diazaspiro[4.5]decan-1-one], the IC50 is reported as 0.005 µM. Compound `COc1cc(N2CCC3(CCN(C(=O)c4ccc(-n5cccc5)cc4)CC3)C2=O)ccc1-c1cn[nH]c1` [Example 193, 2-[3-methoxy-4-(1H-pyrazol-4-yl)phenyl]-8-[4-(1H-pyrrol-1-yl)benzoyl]-2,8-diazaspiro[4.5]decan-1-one] has an IC50 of 0.012 µM. `COc1cc(N2CCC3(CCN(C(=O)c4csc(-c5ccccc5)n4)CC3)C2=O)ccc1-c1cn[nH]c1` [Example 84, 2-[3-methoxy-4-(1H-pyrazol-4-yl)phenyl]-8-(2-phenyl-1,3-thiazole-4-carbonyl)-2,8-diazaspiro[4.5]decan-1-one] showed an IC50 of 0.138 µM. In the case of `COc1cc(N2CCC3(CCN(C(=O)c4ccc(N5CCN(Cc6nccs6)CC5)cc4)CC3)C2=O)ccc1-c1cn[nH]c1` [Example 236, 2-[3-methoxy-4-(1H-pyrazol-4-yl)phenyl]-8-(4-{4-[(1,3-thiazol-2-yl)methyl]piperazin-1-yl}benzoyl)-2,8-diazaspiro[4.5]decan-1-one], the IC50 is reported as 0.0027 µM. Work on `COc1cc(N2CCC3(CCN(S(=O)(=O)c4ccc(S(C)(=O)=O)cc4)CC3)C2=O)ccc1-c1cn[nH]c1` [Example 218, 8-(4-methanesulfonylbenzenesulfonyl)-2-[3-methoxy-4-(1H-pyrazol-4-yl)phenyl]-2,8-diazaspiro[4.5]decan-1-one] yielded an IC50 of 0.843 µM. `COc1cc(N2CCC3(CCN(C(=O)c4ccc(N5CCNCC5)cc4)CC3)C2=O)ccc1-c1cn[nH]c1` [Example 130, 2-[3-methoxy-4-(1H-pyrazol-4-yl)phenyl]-8-[4-(piperazin-1-yl)benzoyl]-2,8-diazaspiro[4.5]decan-1-one] was tested, and the IC50 was 0.0004 µM. Compound `COc1cc(N2CCC3(CCN(C(=O)c4ccc(N5CCCNC5=O)cc4)CC3)C2=O)ccc1-c1cn[nH]c1` [Example 126, 2-[3-methoxy-4-(1H-pyrazol-4-yl)phenyl]-8-[4-(2-oxo-1,3-diazinan-1-yl)benzoyl]-2,8-diazaspiro[4.5]decan-1-one] has an IC50 of 0.0077 µM. In the case of `COc1cc(N2CCC3(CCN(C(=O)Nc4ccc(N(C)C)cc4)CC3)C2=O)ccc1-c1cn[nH]c1` [Example 215, N-[4-(dimethylamino)phenyl]-2-[3-methoxy-4-(1H-pyrazol-4-yl)phenyl]-1-oxo-2,8-diazaspiro[4.5]decane-8-carboxamide], the IC50 is reported as 0.791 µM. With `COc1cc(N2CCC3(CCN(C(=O)c4ccsc4)CC3)C2=O)ccc1-c1cn[nH]c1` [Example 67, 2-[3-methoxy-4-(1H-pyrazol-4-yl)phenyl]-8-(thiophene-3-carbonyl)-2,8-diazaspiro[4.5]decan-1-one] the IC50 was 0.382 µM. In the case of `COc1cc(N2CCC3(CCN(C(=O)c4ccc(N5CCN(CCC(C)C)CC5)cc4)CC3)C2=O)ccc1-c1cn[nH]c1` [Example 238, 2-[3-methoxy-4-(1H-pyrazol-4-yl)phenyl]-8-{4-[4-(3-methylbutyl)piperazin-1-yl]benzoyl}-2,8-diazaspiro[4.5]decan-1-one], the IC50 is reported as 0.0016 µM. In the case of `COc1cc(N2CCC3(CCN(C(=O)c4ccc(-c5cncnc5)cc4)CC3)C2=O)ccc1-c1cn[nH]c1` [Example 135, 2-[3-methoxy-4-(1H-pyrazol-4-yl)phenyl]-8-[4-(pyrimidin-5-yl)benzoyl]-2,8-diazaspiro[4.5]decan-1-one], the IC50 is reported as 0.01 µM. For `COc1cc(N2CCC3(CCN(C(=O)c4ccc(C(=O)O)cc4)CC3)C2=O)ccc1-c1cn[nH]c1` [Example 25, 4-{2-[3-methoxy-4-(1H-pyrazol-4-yl)phenyl]-1-oxo-2,8-diazaspiro[4.5]decane-8-carbonyl}benzoic acid], the IC50 was 1.43 µM. `O=C1N(c2ccc(-c3cn[nH]c3)cc2)CCC12CCN(S(=O)(=O)c1ccccc1)CC2` [Example 2, 8-(benzenesulfonyl)-2-[4-(1H-pyrazol-4-yl)phenyl]-2,8-diazaspiro[4.5]decan-1-one] showed an IC50 of 0.33 µM. `COc1cc2cc(C(=O)N3CCC4(CC3)CCN(c3ccc(-c5cn[nH]c5)c(OC)c3)C4=O)n(C)c2cc1OC` [Example 178] was tested, and the IC50 was 0.014 µM. `COc1cc(-c2cn[nH]c2)ccc1C(=O)N1CCC2(CC1)CCN(c1ccc(-c3cn[nH]c3)c(OC)c1)C2=O` [Example 159, 8-[2-methoxy-4-(1H-pyrazol-4-yl)benzoyl]-2-[3-methoxy-4-(1H-pyrazol-4-yl)phenyl]-2,8-diazaspiro[4.5]decan-1-one] gave an IC50 of 0.029 µM. For `COc1cc(N2CCC3(CCN(C(=O)c4ccn5nc[nH]c(=O)c45)CC3)C2=O)ccc1-c1cn[nH]c1` [Example 202, 2-[3-methoxy-4-(1H-pyrazol-4-yl)phenyl]-8-{4-oxo-3H,4H-pyrrolo[2,1-f][1,2,4]triazine-5-carbonyl}-2,8-diazaspiro[4.5]decan-1-one], the IC50 was 0.0054 µM. Work on `COc1cc(N2CCC3(CCN(C(=O)c4ccc(-n5ccncc5=O)cc4F)CC3)C2=O)ccc1-c1cn[nH]c1` [Example 136, 8-[2-fluoro-4-(2-oxo-1,2-dihydropyrazin-1-yl)benzoyl]-2-[3-methoxy-4-(1H-pyrazol-4-yl)phenyl]-2,8-diazaspiro[4.5]decan-1-one] yielded an IC50 of 0.0042 µM. `COc1cc(N2CCC3(CCN(C(=O)c4ccc(Cn5ccnc5)cc4)CC3)C2=O)ccc1-c1cn[nH]c1` [Example 183, 8-{4-[(1H-imidazol-1-yl)methyl]benzoyl}-2-[3-methoxy-4-(1H-pyrazol-4-yl)phenyl]-2,8-diazaspiro[4.5]decan-1-one] gave an IC50 of 0.023 µM. With `COc1cc(N2CCC3(CCN(C(=O)c4ccc(N)cc4Cl)CC3)C2=O)ccc1-c1cn[nH]c1` [Example 189, 8-(4-amino-2-chlorobenzol)-2-[3-methoxy-4-(1H-pyrazol-4-yl)phenyl]-2,8-diazaspiro[4.5]decan-1-one] the IC50 was 0.038 µM. Compound `COc1ccccc1C(=O)N1CCC2(CC1)CCN(c1ccc(-c3cn[nH]c3)cc1)C2=O` [Example 3, 8-(2-methoxybenzoyl)-2-[4-(1H-pyrazol-4-yl)phenyl]-2,8-diazaspiro[4.5]decan-1-one] has an IC50 of 0.16 µM. For `COc1ccc(C(=O)N2CCC3(CC2)CCN(c2ccc(-c4cn[nH]c4)c(OC)c2)C3=O)c(Cl)c1` [Example 122, 8-(2-chloro-4-methoxybenzoyl)-2-[3-methoxy-4-(1H-pyrazol-4-yl)phenyl]-2,8-diazaspiro[4.5]decan-1-one], the IC50 was 0.011 µM. Work on `COc1cc(N2CCC3(CCN(C(=O)c4ccc(C(N)=O)cc4)CC3)C2=O)ccc1-c1cn[nH]c1` [Example 181, 4-{2-[3-methoxy-4-(1H-pyrazol-4-yl)phenyl]-1-oxo-2,8-diazaspiro[4.5]decane-8-carbonyl}benzamide] yielded an IC50 of 0.035 µM. `COCCN1Cc2cccc(C(=O)N3CCC4(CC3)CCN(c3ccc(-c5cn[nH]c5)c(OC)c3)C4=O)c2C1=O` [Example 204, 2-[3-methoxy-4-(1H-pyrazol-4-yl)phenyl]-8-[2-(2-methoxyethyl)-3-oxo-2,3-dihydro-1H-isoindole-4-carbonyl]-2,8-diazaspiro[4.5]decan-1-one] showed an IC50 of 0.05 µM. Work on `COc1cc(N2CCC3(CCN(C(=O)c4cc(Cl)no4)CC3)C2=O)ccc1-c1cn[nH]c1` [Example 109, 8-(3-chloro-1,2-oxazole-5-carbonyl)-2-[3-methoxy-4-(1H-pyrazol-4-yl)phenyl]-2,8-diazaspiro[4.5]decan-1-one] yielded an IC50 of 0.362 µM. `COc1ccc(C(=O)N2CCC3(CC2)CCN(c2ccc(-c4cn[nH]c4)cc2)C3=O)cc1` [Example 4, 8-(4-methoxybenzoyl)-2-[4-(1H-pyrazol-4-yl)phenyl]-2,8-diazaspiro[4.5]decan-1-one] showed an IC50 of 0.021 µM. For `COc1cc(N2CCC3(CCN(C(=O)c4ccc5c(c4)OCC(=O)N5)CC3)C2=O)ccc1-c1cn[nH]c1` [Example 157, 7-{2-[3-methoxy-4-(1H-pyrazol-4-yl)phenyl]-1-oxo-2,8-diazaspiro[4.5]decane-8-carbonyl}-3,4-dihydro-2H-1,4-benzoxazin-3-one], the IC50 was 0.022 µM. Work on `COc1cc(N2CCC3(CCN(C(=O)c4ccc(N5CCN(C)CC5)cc4Cl)CC3)C2=O)ccc1-c1cn[nH]c1` [Example 27, 8-[2-chloro-4-(4-methylpiperazin-1-yl)benzoyl]-2-[3-methoxy-4-(1H-pyrazol-4-yl)phenyl]-2,8-diazaspiro[4.5]decan-1-one] yielded an IC50 of 0.0008 µM.
